{
  "source": "patent US7643943B2",
  "about": "“Methods for monitoring drug activities in vivo” (Wyeth LLC, priority 2003, dated 2010)",
  "key": {"[1]": {"experiment": "Pharmacodynamic correlation of drug exposure metrics to severity and duration of adverse events", "assay_type": "in vivo, human", "description": "For the cumulative dose drug exposure, cumulative AUCsum was determined. Each patients' specific dosing history while on trial medication was determined and used to derive respective AUCs experienced by each patient for the duration of time from start of treatment to time of highest severity adverse event. This test included all the data, irrespective of AE severity, and was analyzed using the asymptotic Mantel-Haenszel Test for Ordinal Association. A severity score of “1” indicating the lowest severity and “3” indicating the highest severity was used. […] Pharmacokinetic parameters were grouped into low, medium and high categories with an equal number of patients in each category. […] Estimation of cumulative exposure was determined for each patient as described above. Duration of an AE was determined by calculating the time interval for which a given patient experienced a given AE. […] The correlations between AE duration and the continuous pharmacokinetic variables were calculated using Spearman rank correlation test (SAS Institute Inc., SAS® […] REFERENCE, Version 8, Cary, N C: SAS Institute Inc., 1999). […] Results of the pharmacodynamic analysis using AUCsum (discrete predictor), cumulative AUCsum (cumulative predictor variable), Ceoi (peak exposure predictor) are shown in Table 12 as derived from 49 differing adverse events recorded for those patients included in the population analysis. […] Cumulative AUCsum refers to aggregate AUCsum based on individual patient dosing history. Ceoi is the CCI-779 concentration observed at end of infusion."}, "clinical": {"experiment": "clinical", "conditions": "human, whole blood", "protocol": "In a randomized, double-blind, multicenter trial, once-weekly intravenous doses of 25-, 75-, or 250-mg of CCI-779 were administered to patients with advanced renal cancer that were either previously treated, or untreated and not appropriate candidates for high dose interlukin-2 therapy. Whole blood for CCI-779 and metabolite concentrations was drawn for population pharmacokinetic analysis, and Bayesian-predicted area under the concentration-time curves for parent drug (AUC), parent plus metabolite (AUCsum), and cumulative AUC and AUCsum were derived.\nFor CCI-779 clearance, factors for dose, attenuation of exposure with multiple-dose, and effect of body surface area were included.\nThe following examples were based on a randomized, double-blind, multicenter, outpatient phase 2 study of CCI-779 administered by 30 minute intravenous infusion (via an automatic dispensing pump) in patients with advanced RCC. Eligible patients were randomly assigned to treatment in a 1:1:1 ratio to receive 25 mg, 75 mg, or 250 mg of CCI-779 weekly until evidence of disease progression.\nFull pharmacokinetic profiling was planned in a subset of patients, with remaining patients to provide sparse sampling.\nThe bioanalytical method for CCI-779 was performed using whole blood in a liquid chromatography/tandem mass spectrometry (LC/MS/MS) procedure with deuterated internal standard.\nIn order to characterize the pharmacokinetic profiles of patients providing sparse blood sampling, fully and sparsely sampled patient data were analyzed collectively using a population pharmacokinetic method and the NONMEM application (version 1.0, Revision 5.0 on Windows NT 4.0 computer with Pentium processor, NONMEM Project Group, University of California at San Francisco, Calif.). […] Data were therefore modeled separately and segregated by analyte into two separate data sets with dose, time/duration of administration, and demographic information. […] Construction of the NONMEM infile was performed using SAS (version 8.1) on a Sun Microsystems mainframe computer with Sun OS 5.8. […] In both cases, the model-derived value for AUC for a given patient and analyte were obtained from the quotient of CCI-779 Dose/Clearance (CL), in which CL was obtained from Bayesian estimation and the POSTHOC option of NONMEM.\nDuring model building, an exponential error model was applied to the kinetic model."}, "[2]": {"system": "transcripts in patient PBMCs", "experiment": "Spearman's rank correlation of changes in PBMC gene expression (HgU95A arrays) with cumulative AUCsum", "assay_type": "in vivo, human", "conditions": "change in PBMC expression from baseline", "from_the_text": "Consent for the pharmacogenomic portion of the clinical study was received and the project was approved by the local Institutional Review Boards at the participating clinical sites. Blood samples for pharmacogenomic characterization were drawn into cell purification tubes (CPT, Becton Dickinson) prior to therapy and following approximately 8 and 16 weeks of treatment. All blood samples were shipped overnight to the Wyeth Department of Molecular Medicine in Andover, Mass., and PBMCs were isolated from the whole blood samples (8 mL) in CPT tubes according to the manufacturer's procedure. For expression profiling analyses, total RNA was isolated from PBMC pellets using the RNeasy mini kit (Qiagen, Valencia, Calif.) and labeled probe for oligonucleotide arrays was prepared using a modification of the procedure described by Lockhart, et al., NAT. BIOTECHNOL., 14:1675-1680 (1996). […] The “average difference” values for each transcript were normalized to “frequency” values using the scaled frequency normalization method (Hill, et al, GENOME BIOL. 2:research0055.1-0055.13 (2001)) in which the average differences for 11 control cRNAs with known abundance spiked into each hybridization solution were used to generate a global calibration curve. This calibration was then used to convert average difference values for all transcripts to frequency estimates, stated in units of parts per million ranging from 1:300,000 (˜3 parts per million (ppm)) to 1:1000 (1000 ppm). PBMC gene expression data were normalized by the scaled frequency normalization method as described above. […] The filter which removes transcripts called absent in all samples is based upon the absent/present decision call made by the […] 3.2 software, which reflects the relative intensity of hybridization of the labeled probes to perfectly matched oligonucleotides versus hybridization to mismatched oligonucleotides for each transcript on the HgU95A chip. The filter that removes transcripts with a frequency of less than 10 ppm in all samples is designed to remove low abundance transcripts which may have variable expression in technical replicates. […] Changes from pretreatment levels were calculated based on log-transformed expression levels. […] Pairwise correlations were calculated to assess the association between individually derived exposure metrics and gene expression levels measured by HgU95A Affymetrix microarrays during the course of therapy. Correlations were run for two pharmacokinetic parameters—cumulative AUC and cumulative AUCsum, and for four measures of expression level—log2-transformed scaled frequency at 8 weeks, log2-transformed scaled frequency at 16 weeks, the difference between log2-transformed scaled frequency at 8 weeks and baseline, and the difference between log2-transformed scaled frequency at 16 weeks and baseline. Spearman's rank correlations, which are not sensitive to potential non-normal distributional properties of the pharmacokinetic parameters, were computed. The p-value for the hypothesis that the correlation was equal to 0 was calculated for each pairwise correlation. […] The results of permutation tests run for cumulative AUCsum vs expression change at 8 weeks and at 16 weeks are shown in Tables 5a and 5b. […] Table 6 also includes FARP1 (Accession No. A1701049). […] Accession numbers for the 19 transcripts are presented in Table 6, along with columns indicating the coefficient of variation observed in healthy individuals (% CV), the p-value observed in the Spearman correlation, the actual magnitude of the correlation, and the corresponding gene names."}, "[3]": {"experiment": "Pharmacokinetics of CCI-779 in patients with cancer following intravenous administration", "conditions": "human, whole blood", "from_the_text": "The pharmacokinetics of CCI-779 is being studied in patients with cancer receiving CCI-779 either alone or in combination with other chemotherapeutic agents following intravenous administration. Intravenous dosage schedules previously investigated include a cyclical schedule (daily for 5 days every two weeks) and a once-weekly regimen. […] The following examples evaluated the safety, efficacy, and pharmacokinetic/pharmacodynamic relationship to clinical response of three doses of CCI-779, when administered to patients with advanced, refractory renal cell cancer (RCC)."}},
  "data": [
    {"smiles": "CO[C@H]1C[C@@H]2CC[C@@H](C)[C@@](O)(O2)C(=O)C(=O)N2CCCC[C@H]2C(=O)O[C@H]([C@H](C)C[C@@H]2CC[C@@H](OC(=O)C(C)(CO)CO)[C@H](OC)C2)CC(=O)[C@H](C)/C=C(\\C)[C@@H](O)[C@@H](OC)C(=O)[C@H](C)C[C@H](C)/C=C/C=C/C=C/1C", "note": "[CCI-779]", "values": [
      {"measurement": "Spearman correlation to Ceoi: duration of Pain abdomen", "setting": "[1]; N patients 13, P-value 0.01", "value": "0.01 (0.873)"},
      {"measurement": "Correlation to Ceoi: severity of Myalgia", "setting": "[1]; N patients 13, P-value 0.013, Ceoi = CCI-779 concentration at end of infusion", "value": "0.013 (0.414)"},
      {"measurement": "Correlation to Ceoi: severity of Fever", "setting": "[1]; N patients 17, P-value 0.022", "value": "0.022 (0.402)"},
      {"measurement": "Spearman correlation to Ceoi: duration of Fever", "setting": "[1]; N patients 17, P-value 0.04", "value": "0.04 (−0.626)"},
      {"measurement": "Spearman correlation to Ceoi: duration of Anorexia", "setting": "[1]; N patients 22, P-value 0.015", "value": "0.015 (0.597)"},
      {"measurement": "clearance", "setting": "clinical; intravenous", "value": 24.2, "unit": "mL/min"},
      {"measurement": "clearance", "setting": "clinical; iv", "value": 23.2, "unit": "mL/min"},
      {"measurement": "Correlation with AUCsum at 16 weeks: KIAA0857", "setting": "[2]; AB020664, P-value 0.0006", "value": 0.69},
      {"measurement": "Correlation with AUCsum at 8 weeks: KIAA0857", "setting": "[2]; AB020664, P-value 0.9627", "value": 0.01},
      {"measurement": "Correlation with AUCsum at 16 weeks: B4GALT3", "setting": "[2]; AF038661, P-value 0.0002", "value": 0.73},
      {"measurement": "Correlation with AUCsum at 8 weeks: B4GALT3", "setting": "[2]; AF038661, P-value 0.2589", "value": 0.21},
      {"measurement": "Correlation with AUCsum at 16 weeks: SLC25A11", "setting": "[2]; AF070548, P-value 0.0006", "value": 0.69},
      {"measurement": "Correlation with AUCsum at 8 weeks: SLC25A11", "setting": "[2]; AF070548, P-value 0.0881", "value": 0.32},
      {"measurement": "Correlation with AUCsum at 16 weeks: IKBKG", "setting": "[2]; AF074382, P-value 0.0007", "value": 0.68},
      {"measurement": "Correlation with AUCsum at 8 weeks: IKBKG", "setting": "[2]; AF074382, P-value 0.1013", "value": 0.30},
      {"measurement": "Correlation with AUCsum at 16 weeks: UNK_AI147237", "setting": "[2]; AI147237, P-value 0.0004", "value": 0.70},
      {"measurement": "Correlation with AUCsum at 8 weeks: UNK_AI147237", "setting": "[2]; AI147237, P-value 0.0877", "value": 0.32},
      {"measurement": "Correlation with AUCsum at 16 weeks: COX6A1", "setting": "[2]; AI540925, P-value 0.0002", "value": "−0.73"},
      {"measurement": "Correlation with AUCsum at 8 weeks: COX6A1", "setting": "[2]; AI540925, P-value 0.0050", "value": "−0.50"},
      {"measurement": "Correlation with AUCsum at 16 weeks: FARP1", "setting": "[2]; AI701049, P-value 0.001", "value": 0.66},
      {"measurement": "Correlation with AUCsum at 8 weeks: FARP1", "setting": "[2]; AI701049, P-value 0.0089", "value": 0.47},
      {"measurement": "Correlation with AUCsum at 16 weeks: U2AF65", "setting": "[2]; AI762438, P-value 0.0001", "value": 0.74},
      {"measurement": "Correlation with AUCsum at 8 weeks: U2AF65", "setting": "[2]; AI762438, P-value 0.2209", "value": 0.23},
      {"measurement": "Correlation with AUCsum at 16 weeks: UNK_AL022318", "setting": "[2]; AL022318, P-value 0.0005", "value": 0.69},
      {"measurement": "Correlation with AUCsum at 8 weeks: UNK_AL022318", "setting": "[2]; AL022318, P-value 0.2617", "value": 0.21},
      {"measurement": "Correlation with AUCsum at 16 weeks: UNK_AL046394", "setting": "[2]; AL046394, P-value 0.0002", "value": 0.72},
      {"measurement": "Correlation with AUCsum at 8 weeks: UNK_AL046394", "setting": "[2]; AL046394, P-value 0.0999", "value": 0.31},
      {"measurement": "Correlation with AUCsum at 16 weeks: UNK_H98552", "setting": "[2]; H98552, P-value 0.0003", "value": 0.71},
      {"measurement": "Correlation with AUCsum at 8 weeks: UNK_H98552", "setting": "[2]; H98552, P-value 0.0308", "value": 0.39},
      {"measurement": "Correlation with AUCsum at 16 weeks: DPEP1", "setting": "[2]; J05257, P-value 0.0005", "value": 0.69},
      {"measurement": "Correlation with AUCsum at 8 weeks: DPEP1", "setting": "[2]; J05257, P-value 0.0348", "value": 0.39},
      {"measurement": "Correlation with AUCsum at 16 weeks: CYP11A", "setting": "[2]; M14565, P-value 0.0006", "value": 0.69},
      {"measurement": "Correlation with AUCsum at 8 weeks: CYP11A", "setting": "[2]; M14565, P-value 0.0838", "value": 0.32},
      {"measurement": "Correlation with AUCsum at 16 weeks: TNNT1", "setting": "[2]; M19309, P-value 0.0004", "value": 0.70},
      {"measurement": "Correlation with AUCsum at 8 weeks: TNNT1", "setting": "[2]; M19309, P-value 0.2684", "value": 0.21},
      {"measurement": "Correlation with AUCsum at 16 weeks: PML", "setting": "[2]; M79463, P-value 0.0007", "value": 0.68},
      {"measurement": "Correlation with AUCsum at 8 weeks: PML", "setting": "[2]; M79463, P-value 0.0378", "value": 0.38},
      {"measurement": "Correlation with AUCsum at 16 weeks: SLC19A1", "setting": "[2]; U17566, P-value 0.0007", "value": 0.68},
      {"measurement": "Correlation with AUCsum at 8 weeks: SLC19A1", "setting": "[2]; U17566, P-value 0.1220", "value": 0.29},
      {"measurement": "Correlation with AUCsum at 16 weeks: USP11", "setting": "[2]; U44839, P-value 0.0001", "value": 0.76},
      {"measurement": "Correlation with AUCsum at 8 weeks: USP11", "setting": "[2]; U44839, P-value 0.3998", "value": 0.16},
      {"measurement": "Correlation with AUCsum at 16 weeks: ACTN4", "setting": "[2]; U48734, P-value 0.0003", "value": 0.71},
      {"measurement": "Correlation with AUCsum at 8 weeks: ACTN4", "setting": "[2]; U48734, P-value 0.0721", "value": 0.33},
      {"measurement": "Correlation with AUCsum at 16 weeks: FOXM1", "setting": "[2]; U90917, P-value 0.0001", "value": 0.75},
      {"measurement": "Correlation with AUCsum at 8 weeks: FOXM1", "setting": "[2]; U90917, P-value 0.206", "value": 0.24},
      {"measurement": "Correlation with AUCsum at 16 weeks: SULT2B1", "setting": "[2]; U92315, P-value 0.0005", "value": 0.69},
      {"measurement": "Correlation with AUCsum at 8 weeks: SULT2B1", "setting": "[2]; U92315, P-value 0.1066", "value": 0.30},
      {"measurement": "half-life", "setting": "[3]", "value": "~14", "unit": "h"},
      {"measurement": "clearance", "setting": "[3]; 25 mg", "value": "~333", "unit": "mL/min"},
      {"measurement": "clearance", "setting": "[3]; 250 mg", "value": "~1670", "unit": "mL/min"}
    ]}
  ]
}
